In patent publication US20110190274A1, “SALT OF, AND PROCESSES FOR THE PREPARATION OF, 1-ISOPROPYL-4-HEXAHYDRO-1H-1,4-DIAZEPINE” (GLAXO GROUP LIMITED, priority 2008, published 2011):
Structures can show the parent of a compound that is named as a salt. Where two headings read alike, the source gives them in different places.

How the values were obtained:
[1] = Gravimetric vapour sorption (GVS), water sorption/desorption isotherm at varying relative humidity; type: physicochemical; conditions: for water reversibly adsorbed and/or absorbed, and/or desorbed (GVS): relative to minimum mass; for weight gain relative to the minimum mass at 0% RH (GVS) / weight gain cf. minimum mass (GVS): 25° C.
Description: Gravimetric vapour sorption (GVS) data were acquired on a Hiden IGA-Sorp analyser model (available from Hiden Isochema Ltd., 231 Europa Boulevard, Gemini Business Park, Warrington WA5 7TN, United Kingdom), generating a full sorption/desorption isotherm using water vapour perfusion at 25° C. under nitrogen gas and at varying relative humidities (RH).
23 milligrams of a sample of the crystalline Form 1 of 1-isopropyl-4-{[4-(tetrahydro-2H-pyran-4-yloxy)phenyl]carbonyl}hexahydro-1H-1,4-diazepine mono-maleate prepared in Example 4 were placed into a clean and dry tared sample mesh pan and weighed using the IGA-Sorp internal balance.
(i) starting from about 30% RH and increasing to about 90% RH in increments of about 10% RH (results shown as the solid line in the middle and on the right of FIG. 5), and then (ii) decreasing from about 90% RH to 0% RH in increments of about 10% RH (results shown as the dotted line in FIG. 5), and then (iii) increasing from 0% RH to about 30% RH, in increments of about 5% RH up to ca. 10% RH, and then in increments of about 10% RH from ca. 10% to ca. 30% RH (results shown as the solid line on the left of FIG. 5).
The weight of the sample was recorded after each ca. 10% RH increment. The point of equilibrium, after each ca. 10% RH increment, was automatically determined using a 97% asymptote setting.
Gravimetric Vapour Sorption (GVS) data, on the solid 1-isopropyl-4-{[4-(tetrahydro-2H-pyran-4-yloxy)phenyl]carbonyl}hexahydro-1H-1,4-diazepine hydrochloride from Example 2, Part C (the “kinetic” solid hydrochloride salt produced by fast crystallisation, and before purification by recrystallisation), were acquired on a DVS-1 SMS model (available from Surface Measurement System (SMS)), generating a full sorption/desorption isotherm using water vapour perfusion at 25° C. under nitrogen gas and at varying relative humidities (RH).
22 milligrams of the specified solid hydrochloride salt sample were placed into a clean and dry tared sample glass pan and weighed using the DVS-1 internal balance.
(i) starting from about 30% RH and increasing to about 90% RH in increments of about 10% RH (results shown as the line in the middle and on the right of FIG. 6, going from ca. 7-8% weight gain cf. minimum mass at ca. 30% RH, to ca. 14-15% weight gain cf. minimum mass at ca. 90% RH), and then (ii) decreasing from about 90% RH to 0% RH in increments of about 10% RH (results shown as the line in FIG. 6, starting from ca. 14-15% weight gain cf. minimum mass at ca. 90% RH, going towards the left almost horizontally to ca. 14% weight gain at ca. 30% RH, and then going rapidly down to 0% weight gain at 0% RH), and then (iii) increasing from 0% RH to about 30% RH in increments of about 10% RH (results shown as the line on the bottom left of FIG. 6, going from 0% weight gain at 0% RH to about 2% weight gain at ca. 30% RH).
The weight of the sample was recorded after each ca. 10% RH increment. The point of equilibrium was automatically determined using a 0.02 dm/dt setting.

histamine H3 receptor [2] = molecular target: T1, histamine H3 receptor (Homo sapiens, UniProt Q9Y5N1); experiment: histamine H3 functional antagonist assay using membrane prepared from cultured H3 cells; type: biochemical
T1 construct: host or cells: cultured H3 cells (membranes)
T1 sequence (Q9Y5N1 whole entry): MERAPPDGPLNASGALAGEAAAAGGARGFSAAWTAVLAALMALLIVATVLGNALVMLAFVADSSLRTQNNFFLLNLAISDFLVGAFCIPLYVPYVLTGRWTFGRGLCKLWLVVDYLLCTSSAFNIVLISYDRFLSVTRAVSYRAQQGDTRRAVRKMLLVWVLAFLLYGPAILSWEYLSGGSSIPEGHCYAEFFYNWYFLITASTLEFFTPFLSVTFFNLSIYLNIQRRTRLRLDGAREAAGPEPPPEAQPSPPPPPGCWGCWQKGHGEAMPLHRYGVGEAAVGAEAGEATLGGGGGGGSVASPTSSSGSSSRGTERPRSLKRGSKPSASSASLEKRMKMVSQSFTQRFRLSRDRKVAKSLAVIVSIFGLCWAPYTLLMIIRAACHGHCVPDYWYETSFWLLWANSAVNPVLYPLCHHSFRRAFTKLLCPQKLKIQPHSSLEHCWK
Description: 1-Isopropyl-4-{[4-(tetrahydro-2H-pyran-4-yloxy)phenyl]carbonyl}hexahydro-1H-1,4-diazepine hydrochloride was tested using substantially the histamine H3 functional antagonist assay disclosed on pages 47-49, and in particular page 48 line 26 to page 49 line 7, of WO 2009/030716 A1 (Glaxo Group Limited). The result is expressed as a functional pKi (fpKi) value. A functional pKi is the negative logarithm of the antagonist equilibrium dissociation constant as determined in the H3 functional antagonist assay using membrane prepared from cultured H3 cells. The result given is an average of a number of experiments.

[3] = Karl Fischer analysis of water content; type: physicochemical; conditions: normal United Kingdom room humidity
Description: A Karl Fischer analysis of water content was carried out on the crystalline Form 1 mono-maleate salt prepared in Example 4 (at normal United Kingdom room humidity). This Karl Fischer analysis reported a water content of less than 0.1% w/w.

rats = conditions: certain oral doses; cited from earlier work
histamine H3 receptor [4] = molecular target: T2, histamine H3 receptor (Rattus norvegicus, UniProt Q9QYN8); conditions: following oral administration to the rat; cited from earlier work
T2 construct: from tissue; host or cells: rat cortex
T2 sequence (Q9QYN8 whole entry): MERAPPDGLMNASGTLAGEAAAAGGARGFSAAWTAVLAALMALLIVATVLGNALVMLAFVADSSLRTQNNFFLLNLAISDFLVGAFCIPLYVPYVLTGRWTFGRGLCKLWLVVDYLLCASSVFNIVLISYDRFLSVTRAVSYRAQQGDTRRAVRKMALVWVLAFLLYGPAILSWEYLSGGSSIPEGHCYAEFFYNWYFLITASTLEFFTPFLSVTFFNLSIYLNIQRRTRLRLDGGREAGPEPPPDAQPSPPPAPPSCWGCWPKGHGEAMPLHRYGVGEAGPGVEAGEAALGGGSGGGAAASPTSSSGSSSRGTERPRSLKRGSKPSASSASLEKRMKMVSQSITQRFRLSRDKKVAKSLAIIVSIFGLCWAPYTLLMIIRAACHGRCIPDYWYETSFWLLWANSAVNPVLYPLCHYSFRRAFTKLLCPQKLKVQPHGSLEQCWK

rodent = conditions: literature reports; cited from earlier work
[5] = Hygroscopicity and stability of the solid diazepine intermediate salts in air; type: physicochemical; conditions: for hygroscopicity of the solid: air at normal humidities, normal relative humidity (e.g. ca. 30%) at 25° C.
Description: (i) The use of 1-isopropyl-hexahydro-1H-1,4-diazepine bis-trifluoroacetate allows the avoidance of the use of toxic dioxane in the preparation of 1-(isopropyl)-hexahydro-1H-1,4-diazepine dihydrochloride (from the BOC-protected precursor e.g. Intermediate 1), which preparation typically (see e.g. Intermediate 2 herein) uses HCl (e.g. 4M HCl) in dry dioxane (to avoid the water present in aqueous hydrochloric acid) in order to obtain solid 1-(isopropyl)hexahydro-1H-1,4-diazepine dihydrochloride. […] This hygroscopicity makes it difficult to quantify and weigh the dihydrochloride salt for the coupling reaction, and also can lead to the presence of undesired water in the coupling reaction (e.g. with DCI).

[6] = across the 0-90% relative humidity range at 25° C. under nitrogen

With `CC(C)N1CCCN(C(=O)c2ccc(OC3CCOCC3)cc2)CC1` [Example 2 Part A, 1-Isopropyl-4-{[4-(tetrahydro-2H-pyran-4-yloxy)phenyl]carbonyl}hexahydro-1H-1,4-diazepine] as the compound, how does the “water reversibly adsorbed and/or absorbed, and/or desorbed (GVS)” value [1, 6] read?
Its value is 0.4-0.5 % w/w.

With `CC(C)N1CCCN(C(=O)c2ccc(OC3CCOCC3)cc2)CC1.Cl` [Example 2 Part C, 1-Isopropyl-4-{[4-(tetrahydro-2H-pyran-4-yloxy)phenyl]carbonyl}hexahydro-1H-1,4-diazepine hydrochloride] as the compound, how does the Ki (histamine H3 receptor [2]; 12 experiments, read-out: range of measured fpKi values) read?
Its Ki is 0.501 to 20 nM.

What about the Ki (histamine H3 receptor [2]; mean of 12 experiments, read-out: functional pKi (fpKi), H3 antagonism (converted)) of the same compound?
The Ki was ~5.01 nM.

And the “water sorption compared with crystalline Form 1 mono-maleate (GVS)” value [1, 6]?
The value was “higher quantities of water”.

And the “water reversibly adsorbed and/or absorbed, and/or desorbed (GVS)” value [1, 6]?
Its value is 14-15 % w/w.

What about the “weight gain relative to the minimum mass at 0% RH (GVS)” value ([1]; at about 30% RH, start of first sorption) of the same compound?
The value was 7-8 % w/w.

And the “weight gain relative to the minimum mass at 0% RH (GVS)” value ([1]; at about 90% RH, end of first sorption)?
Its value is 14-15 % w/w.

And the “weight gain cf. minimum mass (GVS)” value ([1]; at ca. 30% RH on desorption from ca. 90% RH)?
Its value is “ca. 14%”.

And the “weight gain cf. minimum mass (GVS)” value ([1]; at ca. 30% RH on re-sorption from 0% RH)?
Its value is “about 2%”.

For `CC(C)N1CCCN(C(=O)c2ccc(OC3CCOCC3)cc2)CC1.O=C(O)/C=C\C(=O)O` [Example 4, 1-Isopropyl-4-{[4-(tetrahydro-2H-pyran-4-yloxy)phenyl]carbonyl}hexahydro-1H-1,4-diazepine mono-maleate salt (crystalline Form 1)], which “water content (Karl Fischer)” value [3] is on record?
The value was “less than 0.1 % w/w”.

For `CNC(=O)c1ccc(Oc2ccc3c(c2)CCN(C2CCC2)CC3)nc1` [GSK189254], which “performance in cognition paradigms” value (rats) is on record?
Its value is “improved performance”.

What about the “ex vivo binding in the rat cortex” value (histamine H3 receptor [4]) of the same compound?
The value was “inhibited”.

With `CC(C)(C)CCC#C[C@@H]1C[C@H]1c1c[nH]cn1` [GT-2331] as the compound, how does the “cognitive effect in rodent models” value (rodent) read?
The value was “cognitive enhancing properties”.

For `CC(C)N1CCCNCC1.Cl.Cl` [Intermediate 2, 1-Isopropyl-hexahydro-1H-1,4-diazepine dihydrochloride], which “hygroscopicity of the solid” value [5] is on record?
The value was “very hygroscopic”.

Which “stability of the solid” value [5] does the source give for `CC(C)N1CCCNCC1` [Intermediate 3, 1-Isopropyl-hexahydro-1H-1,4-diazepine bis-trifluoroacetate salt] here?
Its value is “long-term stability”.

What about the “hygroscopicity of the solid” value [5] of the same compound?
The value was “substantially non-hygroscopic”.

Which “cognitive effect in rodent models” value (rodent) does the source give for `O=C(c1ccc(OCCCc2cnc[nH]2)cc1)C1CC1` [ciproxifan] here?
The value was “cognitive enhancing properties”.

For `NC(=NCc1ccc(Cl)cc1)SCCCc1cnc[nH]1` [clobenpropit], which “cognitive effect in rodent models” value (rodent) is on record?
The value was “cognitive enhancing properties”.

With `S=C(NC1CCCCC1)N1CCC(c2cnc[nH]2)CC1` [thioperamide] as the compound, how does the “cognitive effect in rodent models” value (rodent) read?
Its value is “cognitive enhancing properties”.
